Literature values in patent US5874549A, “Acid-cleavable compound” (NeoRx Corporation, priority 1993, dated 1999).

Conditions: relative to Cpd 1 = 1

| Structure (SMILES) | Relative Rate (hydrolysis of the amide group) |
| --- | --- |
| CC(C)NC(=O)/C=C\C(=O)O [Cpd 11] | 0.7 |
| CC/C(=C/C(=O)NC)C(=O)O [Cpd 3] | 32.8 |
| CNC(=O)/C=C(\C(=O)O)C(C)(C)C [Cpd 5] | 68.0 |
| CC(C)(C)NC(=O)/C=C\C(=O)O [Cpd 12] | 2.6 |
| CNC(=O)C1=C(C(=O)O)CCC1 [Cpd 8] | 4.2 × 10^-5 |
| CNC(=O)c1ccccc1C(=O)O [Cpd 10] | 0.72 |
| CNC(=O)/C=C\C(=O)O [Cpd 1] | 1 |
| CN(C)C(=O)/C=C\C(=O)O [Cpd 14] | 42.7 |
| CNC(=O)/C=C(\C(=O)O)C(C)C [Cpd 4] | 44.5 |
| CCCNC(=O)/C(C)=C(/C)C(=O)O [Cpd 6] | 2.35 × 10^4 |
| C=CC(=O)NC [N-methyl acrylamide] | ~1.4 × 10^-7 |
| CNC(=O)/C=C(/C)C(=O)O [Cpd 2] | 31.2 |
| CNC(=O)C1=C(C(=O)O)CCCC1 [Cpd 7] | 540 |
| O=C(O)/C=C\C(=O)Nc1ccccc1 [Cpd 13] | 4.5 |
| CNC(=O)C1=C(C(=O)O)CC1 [Cpd 9] | 4.2 × 10^-6 |
